One assay addresses T1, FLT3D835Y kinase (Homo sapiens, UniProt P36888, D835Y).
T1 sequence (P36888 27-993 D835Y): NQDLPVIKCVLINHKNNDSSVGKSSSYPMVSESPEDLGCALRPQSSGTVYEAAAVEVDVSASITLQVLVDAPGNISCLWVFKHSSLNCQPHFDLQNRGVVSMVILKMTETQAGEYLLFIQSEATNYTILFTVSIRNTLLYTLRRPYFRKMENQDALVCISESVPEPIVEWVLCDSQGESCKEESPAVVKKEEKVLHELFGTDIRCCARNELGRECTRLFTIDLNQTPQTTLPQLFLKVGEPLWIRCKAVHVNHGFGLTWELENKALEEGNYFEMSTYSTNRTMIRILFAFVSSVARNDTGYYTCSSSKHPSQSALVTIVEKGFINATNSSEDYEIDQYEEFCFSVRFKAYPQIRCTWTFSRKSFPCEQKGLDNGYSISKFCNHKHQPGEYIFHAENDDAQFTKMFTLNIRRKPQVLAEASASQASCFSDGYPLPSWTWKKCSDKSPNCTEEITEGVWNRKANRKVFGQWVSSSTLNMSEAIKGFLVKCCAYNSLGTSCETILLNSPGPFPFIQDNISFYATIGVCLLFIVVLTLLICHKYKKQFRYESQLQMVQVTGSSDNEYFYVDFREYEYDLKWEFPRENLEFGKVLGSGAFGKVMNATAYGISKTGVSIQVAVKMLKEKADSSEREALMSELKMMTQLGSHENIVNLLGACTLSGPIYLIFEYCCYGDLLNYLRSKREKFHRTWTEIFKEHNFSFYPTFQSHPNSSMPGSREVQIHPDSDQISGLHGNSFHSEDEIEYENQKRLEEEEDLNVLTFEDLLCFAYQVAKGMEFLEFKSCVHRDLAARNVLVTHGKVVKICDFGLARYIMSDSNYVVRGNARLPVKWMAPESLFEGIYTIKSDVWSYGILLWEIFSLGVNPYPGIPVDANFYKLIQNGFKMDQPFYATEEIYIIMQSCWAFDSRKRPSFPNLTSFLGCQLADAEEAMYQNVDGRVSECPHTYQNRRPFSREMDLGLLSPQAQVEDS
Nature of the assay: FLT3D835Y kinase inhibition assay (LanthaScreen TR-FRET). The class given is biochemical. Conditions: read-out: FLT3 IC50. Here is the method: FLT3D835Y Kinase Inhibition Assay
LanthaScreen™ is the detection of Time-Resolved Fluorescence Resonance Energy Transfer (TR-FRET) using lanthanide chelates to measure interactions between various binding partners. The application of TR-FRET to assay kinase activity was first described by Mathis (1995). A TR-FRET assay was used to measure FLT3D835Y kinase inhibitory activity. The assay panel was run on a Biomek FX liquid handling workstations. To the assay plates containing […] compound or control solutions, 4.5 μL of buffer A (50 mM TRIS-HCl pH 7.4, 2 mM DTT, 0.02% Tween 20, 0.02 mM Na3VO4, H2O nanpure) including a generic concentration of ATP (2 μM f.c.) was added per well, followed by […] of buffer B (4 uM ATP in Buffer A) including a generic concentration of polyEAY (50 nM f.c.), FLT3D835Y kinase, and divalent cations. Final concentration of kinase and cations were: [FLT3D835Y kinase]=5.7 nM, [Mg]=3 mM, [Mn]=3 mM. After 1 hour of incubation the kinase reactions were stopped by the addition of 4.5 μL of stop solution D (50 mM EDTA, 20 mM TRIS-HCl pH 7.4, 0.04% NP-40) immediately followed by 4.5 μL of buffer A (50 mM TRIS-HCl pH 7.4, 2 mM DTT, 0.02% Tween 20, 0.02 mM Na3VO4, H2O nanpure) including the Tb-labeled P-20 antibody to give a total detection volume of […]. After an incubation time of 45 min in the dark, the plates were transferred into the Pherastar fluorescence reader for counting. The effect of compound on the enzymatic activity was obtained from the linear progress curves and determined from one reading (end point measurement).

A further assay concerns the target cABLT315 kinase (Homo sapiens, UniProt P00519). Nature of the assay: cABLT315 kinase Caliper assay. The class given is biochemical. The procedure:
PKCα and cABLT315 Kinase Caliper Assays
Assays were performed in 384 well microtiter plates. Each assay plate contained 8-point serial dilutions for test compounds, as well as two 16-point serial dilutions of staurosporine as reference compound, plus 16 high- and 16 low controls. Liquid handling and incubation steps were done on a Thermo CatX workstation equipped with a Innovadyne Nanodrop Express. Between pipetting steps, tips were cleaned in wash cycles using wash buffer. Plates with terminated kinase reactions were transferred to the Caliper LC3000 workstations for reading. Phosphorylated and unphosphorylated peptides were separated using the Caliper microfluidic mobilitishift technology and Kinase activities were calculated from the amounts of formed phospho-peptide.
Kinase reactions were prepared in 384 low volume plates by the following sequence:
1. 0.05 μA Compound (start with 1.8 mM in 90% DMSO/10% H2O)
2. +4.5 μl 2× peptide/ATP solution
3. +4.5 μl 2× enzyme solution
4. Incubate for 60 min at 30° C.
4. +16 μl stop/run buffer
Independent of the kinase, all reactions were done performed in 50 mM HEPES, pH 7.5, 1 mM DTT, 0.02% Tween20, 0.02% BSA, and 0.6% DMSO. For cABLT315 assay specific details were as follows: [cABLT315 kinase]=2.4 nM, [ATP]=10 uM, [peptide]=2 uM, [Mg]=10 mM. For PKCα, assay specific details were as follows: [kinase]=0.012 nM, [ATP]=17 uM, [peptide]=1 uM, [Mg]=7 mM, [Ca]=0.2 mM.

Where two headings read alike, the source gives them in different places.

The IC50 is the concentration that inhibits the measured activity by half. Take `CC1(C)C[C@H](N)C[C@@H](c2ccncc2NC(=O)c2nc(-c3ccccc3)cnc2N)O1` [Example 297, 3-amino-N-(4-((2S,4R)-4-amino-6,6-dimethyltetrahydro-2H-pyran-2-yl)pyridin-3-yl)-6-phenylpyrazine-2-carboxamide]: the 50% inhibitory concentration (IC50) on FLT3D835Y kinase stood at 23 nM; on cABLT315 kinase (Caliper assay), 860 nM.

With `Nc1ncc(-c2ccccc2)nc1C(=O)Nc1cnccc1[C@H]1C[C@@H](O)[C@@]2(O)CCCC[C@H]2O1` [Example 173, 3-amino-N-(4-((2R,4R,4aS,8aR)-4,4a-dihydroxyoctahydro-2H-chromen-2-yl)pyridin-3-yl)-6-phenylpyrazine-2-carboxamide], the concentration for half-maximal inhibition (IC50) at FLT3D835Y kinase came to 7.4 nM; on cABLT315 kinase, 70 nM.

On to `CC1(C)C[C@@H](N)C[C@H](c2ccncc2NC(=O)c2nc(-c3ccccc3)cnc2N)O1` [Example 296, 3-amino-N-(4-((2R,4S)-4-amino-6,6-dimethyltetrahydro-2H-pyran-2-yl)pyridin-3-yl)-6-phenylpyrazine-2-carboxamide], for which the IC50 on FLT3D835Y kinase came out at 0.8 nM; on cABLT315 kinase (Caliper assay), 110 nM.

For `Nc1ncc(-c2ccccc2)nc1C(=O)Nc1cnccc1[C@@H]1C[C@H](O)[C@]2(O)CCCC[C@@H]2O1` [Example 176, 3-amino-N-(4-((2S,4S,4aR,8aS)-4,4a-dihydroxyoctahydro-2H-chromen-2-yl)pyridin-3-yl)-6-phenylpyrazine-2-carboxamide], the figures for the half-maximal inhibitory concentration (IC50) at FLT3D835Y kinase and against cABLT315 kinase were 1100 nM and 7400 nM, respectively.

For the compound `Nc1cnc(-c2c(F)cccc2F)nc1C(=O)Nc1cnccc1[C@H]1C[C@@H](N)[C@@]2(O)CCC[C@H]2O1` [Example 213, 5-amino-N-(4-((2R,4R,4aS,7aR)-4-amino-4a-hydroxyoctahydrocyclopenta[b]pyran-2-yl)pyridin-3-yl)-2-(2,6-difluorophenyl)pyrimidine-4-carboxamide], the results for the IC50 on FLT3D835Y kinase and at cABLT315 kinase were 3500 nM and greater than 10000 nM, respectively.

As to `CC[C@]1(O)[C@H](N)C[C@H](c2ccncc2NC(=O)c2ccc(F)c(-c3c(F)cccc3F)n2)O[C@@H]1C` [Example 232, N-(4-((2R,4R,5S,6R)-4-amino-5-ethyl-5-hydroxy-6-methyltetrahydro-2H-pyran-2-yl)pyridin-3-yl)-6-(2,6-difluorophenyl)-5-fluoropicolinamide], the IC50 was 830 nM on FLT3D835Y kinase and greater than 10000 nM at cABLT315 kinase (Caliper assay).

`Nc1ncc(-c2ccccc2)nc1C(=O)Nc1cnccc1[C@@H]1C[C@H](O)[C@]2(O)CCC[C@@H]2O1` [Example 186, 3-amino-N-(4-((2S,4S,4aR,7aS)-4,4a-dihydroxyoctahydrocyclopenta[b]pyran-2-yl)pyridin-3-yl)-6-phenylpyrazine-2-carboxamide]: the values for the concentration for half-maximal inhibition (IC50) on FLT3D835Y kinase and against cABLT315 kinase were 1600 nM and 9900 nM, respectively.

Consider `Nc1ncc(-c2ccccc2)nc1C(=O)Nc1cnccc1[C@H]1C[C@@H](O)[C@@]2(O)CCC[C@H]2O1` [Example 195, 3-amino-N-(4-((2R,4R,4aS,7aR)-4,4a-dihydroxyoctahydrocyclopenta[b]pyran-2-yl)pyridin-3-yl)-6-phenylpyrazine-2-carboxamide], for which the values for the half-inhibitory concentration (IC50) on FLT3D835Y kinase and against cABLT315 kinase were 3.5 nM and 90 nM, respectively.

With `O=C1CC[C@H]2O[C@@H](c3ccncc3NC(=O)c3ccc(F)c(-c4c(F)cccc4F)n3)C[C@@H](O)[C@@H]2N1` [Example 196, 6-(2,6-difluorophenyl)-5-fluoro-N-(4-((2R,4R,4aS,8aR)-4-hydroxy-6-oxooctahydro-2H-pyrano[3,2-b]pyridin-2-yl)pyridin-3-yl)picolinamide], the IC50 on FLT3D835Y kinase and against cABLT315 kinase was greater than 10000 nM each time.

As for `N[C@@H]1C[C@H](c2ccncc2NC(=O)c2ccc(F)c(-c3c(F)cccc3F)n2)O[C@@H]2CCC[C@]12O` [Example 210, N-(4-((2R,4R,4aS,7aR)-4-amino-4a-hydroxyoctahydrocyclopenta[b]pyran-2-yl)pyridin-3-yl)-6-(2,6-difluorophenyl)-5-fluoropicolinamide], the IC50 at FLT3D835Y kinase was 4200 nM; at cABLT315 kinase, greater than 10000 nM.

On to `COc1cc(F)c(-c2nc(C(=O)Nc3cnccc3[C@H]3C[C@@H](N)[C@](C)(O)[C@@H](C)O3)ccc2F)c(F)c1` [Example 242, N-(4-((2R,4R,5S,6R)-4-amino-5-hydroxy-5,6-dimethyltetrahydro-2H-pyran-2-yl)pyridin-3-yl)-6-(2,6-difluoro-4-methoxyphenyl)-5-fluoropicolinamide], for which the half-maximal inhibitory concentration (IC50) is 1200 nM on FLT3D835Y kinase and greater than 10000 nM against cABLT315 kinase (Caliper assay).

On to `N[C@H]1C[C@@H](c2ccncc2NC(=O)c2csc(-c3c(F)cccc3F)n2)O[C@H]2CCC[C@H]21` [Example 230, N-(4-((2S,4S,4aS,7aS)-4-aminooctahydrocyclopenta[b]pyran-2-yl)pyridin-3-yl)-2-(2,6-difluorophenyl)thiazole-4-carboxamide], for which the IC50 at FLT3D835Y kinase is 270 nM; at cABLT315 kinase (Caliper assay), greater than 10000 nM.

As to `O=C(Nc1cnccc1[C@H]1C[C@@H](O)[C@@]2(O)CCCC[C@H]2O1)c1c[nH]cc(-c2ccccc2)c1=O` [Example 178, N-(4-((2R,4R,4aS,8aR)-4,4a-dihydroxyoctahydro-2H-chromen-2-yl)pyridin-3-yl)-4-oxo-5-phenyl-1,4-dihydropyridine-3-carboxamide], the IC50 on FLT3D835Y kinase and against cABLT315 kinase was greater than 10000 nM throughout.

For the compound `C[C@H]1O[C@@H](c2ccncc2NC(=O)c2ccc(F)c(-c3c(F)cccc3F)n2)C[C@@H](N)[C@]1(C)O` [Example 219, N-(4-((2R,4R,5S,6R)-4-amino-5-hydroxy-5,6-dimethyltetrahydro-2H-pyran-2-yl)pyridin-3-yl)-6-(2,6-difluorophenyl)-5-fluoropicolinamide], the IC50 was 1700 nM at FLT3D835Y kinase and greater than 10000 nM against cABLT315 kinase (Caliper assay).

Take `Nc1cc(F)c(-c2c(F)cccc2F)nc1C(=O)Nc1cnccc1[C@H]1C[C@@H](N)[C@@]2(O)CCCC[C@H]2O1` [Example 238, 3-amino-N-(4-((2R,4R,4aS,8aR)-4-amino-4a-hydroxyoctahydro-2H-chromen-2-yl)pyridin-3-yl)-6-(2,6-difluorophenyl)-5-fluoropicolinamide]: the IC50 was 990 nM on FLT3D835Y kinase and greater than 10000 nM on cABLT315 kinase (Caliper assay).

As for `CC[C@]1(O)[C@H](O)C[C@H](c2ccncc2NC(=O)c2nc(-c3c(F)cccc3F)ncc2N)O[C@@H]1C` [Example 143, 5-amino-2-(2,6-difluorophenyl)-N-(4-((2R,4R,5S,6R)-5-ethyl-4,5-dihydroxy-6-methyltetrahydro-2H-pyran-2-yl)pyridin-3-yl)pyrimidine-4-carboxamide], the IC50 at FLT3D835Y kinase and on cABLT315 kinase was greater than 10000 nM each time.

These data come from patent publication US20130109682A1, “CYCLIC ETHER COMPOUNDS USEFUL AS KINASE INHIBITORS” (NOVARTIS AG, priority 2010, published 2013).
